US20200245616A1, “A Disinfectant Composition with Extended Antimicrobial Effects” (Siamons International Inc., priority 2017, published 2020)

Legend:
Assay type in all cases: cell-based
[1] = test system: Pseudomonas aeruginosa ATCC 15442; assay: AOAC Official Method 961.02 Germicidal Spray Method, bacteria on glass carriers; conditions: for Pseudomonas aeruginosa Growth Rate: 10 min contact
Text: (§1) In this method, a series of glass slides (“carriers”) were inoculated with a representative test organism and the carriers were dried under ambient conditions. The dried organisms on the surface of the carrier were then sequentially treated with the composition of the present disclosure in the form of a spray product and were exposed for a pre-determined exposure time. After exposure, the carriers were sequentially transferred to a liquid subculture medium specifically selected to neutralize the composition of the present disclosure and to recover any surviving test organism. The carriers were incubated and visually examined for the presence or absence of growth. […] Required organisms for a disinfection claim include but are not limited to Staphylococcus aureus, Salmonella choleraesuis and Pseudomonas aeruginosa.
(§2) Method Adapted to the Preparation of Bacteria Cultures from −80° C. Freshly Recovered Stock. […] Added 10 μL of the thawed stock to a tube containing 10 mL synthetic broth and then vortexed to mix. Discarded the rest of cryovial stock. • Incubated the tube at 36 ±1° C. for 24 hours (h). Briefly vortexed the 24 h culture prior to transfer. For this final subculture step, inoculated two 20×150 mm tubes containing 10 mL synthetic broth with […] of the 24 h synthetic broth culture. • Incubated 48 h at 36±1° C. Using a Vortex-style mixer, mixed synthetic broth test cultures 3-4 seconds and let stand 10 minutes at room temperature before continuing. Removed the upper portion of each culture, leaving behind any debris or clumps, and transferred to a sterile tube. Titrated the culture by plating on synthetic agar plates, and diluted to 5×10^8 Colony Forming Units (CFU) per mL.
(§3) High volume screening studies were conducted in some cases where only 4 organism-inoculated carriers were treated at specified concentrations of CTAB. Vortex-mixed the inoculum periodically during inoculation of the carriers. • Immediately spread the inoculum uniformly over the majority of the carrier surface using a sterile loop. […] Covered dish immediately and repeated operation until 64 carriers had been prepared for the test. Once all of the carriers had been inoculated, placed in incubator at 37° C. for 40 minutes until dry.
(§4) • After the test organisms were dried on the surface of the carrier, each carrier was sprayed with the respective disinfection formulae 10 times in 10 seconds at a distance of 30 cm. • Treatment interval was timed. Ten (10) minutes after each carrier had been sprayed by the disinfectant, the excess liquid was removed and the carriers were transferred in a sequentially timed fashion into the culture tubes containing 20 ml neutralizer (Letheen Broth with 0.07% Lecithin/0.5% Tween 80/0.1% Sodium Thiosulfate) to neutralize the disinfectant. […] The percentage of the treated carriers showing growth after 48 hours was recorded.

[2] = test system: Staphylococcus aureus ATCC 6538; assay: as above; conditions: 10 min contact
Text: as §1, §2, §3, §4

[3] = test system: Aspergillus niger ATCC 6275; assay: AOAC Official Method 961.02 Germicidal Spray Method, fungal conidia on glass carriers; conditions: 10 min contact
Text: as §1
(§5) The conidiospore suspension was macerated in a tissue grinder. The suspension was filtered through sterile cotton to remove the hyphae and hyphal fragments.
(§6) Vortex-mixed the inoculum periodically during inoculation of the carriers. • Immediately spread the inoculum uniformly over the majority of the carrier surface using a sterile loop. […] High volume screening studies were conducted in some cases where only 4 organism-inoculated carriers were treated at specified concentrations of CTAB. Once all of the carriers had been inoculated, the carriers were placed in an incubator at 37° C. for 40 minutes until completely dry.
(§7) • After drying, each carrier was sprayed with the respective disinfection formulae 10 times in 10 seconds at a distance of 30 cm. • Timed the treatment interval. Ten (10) minutes after each carrier had been exposed to the disinfectant, the excess liquid was removed and the carriers were transferred in a sequentially timed fashion into the culture tubes containing 20 ml neutralization broth (Letheen Broth with 0.07% Lecithin /0.5% Tween 80) to neutralize the disinfectant. • After the carriers were deposited in the respective culture tubes, the tubes were recapped and the cultures were thoroughly resuspended. • Incubated all neutralization tubes at 28 ±1° C. for 14 days. • After 14 days, the cultures within the tubes were examined for growth. The percentage of the treated carriers showing growth was recorded.

[4] = test system: Penicillium variable ATCC 32333; assay: as above; conditions: 10 min contact
Text: as §1, §5, §6, §7

[5] = test system: Trichophyton mentagrophytes ATCC 9533; assay: as above; conditions: 10 min contact
Text: as §1, §5, §6, §7

[6] = test system: select bacteria and fungal organisms; assay: Germicidal spray disinfection, summary over the tested organisms; conditions: 0.01% QAH in CMC; 10-minute contact time
Description: (§8) All experiments were conducted according to the protocol outlined in AOAC Official Method 961.02 (Germicidal Spray Method), which is a carrier-based method used to evaluate disinfection efficacy of aerosol/pump-based spray products and liquid products for registration with regulatory agencies such as the U.S. EPA and Health Canada.
It was expected that if the CTAB was replaced by QAH's of similar structure that the disinfection of selected bacteria and fungal organisms would be similarly achieved. […] In the case of bacteria testing, the experimental procedure was as outlined in Example 1 for disinfection of bacterial cultures. In the case of fungal organisms, the experimental procedure was as outlined in Example 1 for the preparation of fungal cultures.

[7] = test system: Salmonella choleraesuis ATCC 10708; assay: AOAC Official Method 961.02 Germicidal Spray Method, bacteria on glass carriers; conditions: 10 min contact
Description: as §8, §1
Method Adapted to the Preparation of Bacteria Cultures from −80° C. Freshly Recovered Stock. […]

CC(C)(C)CC(C)(C)c1ccc(OCCOCC[N+](C)(C)Cc2ccccc2)cc1 [BZT, Benzethonium chloride]
Pseudomonas aeruginosa Growth Rate ([1]; CMC + QAH, QAH 0.010%): 0% | Pseudomonas aeruginosa Growth Rate ([1]; CMC + QAH, QAH 0.100%): 0% | Pseudomonas aeruginosa Growth Rate ([1]; CMC + QAH, QAH 1.000%): 0% | Pseudomonas aeruginosa Growth Rate ([1]; Water + QAH, QAH 0.010%): 100% | Pseudomonas aeruginosa Growth Rate ([1]; Water + QAH, QAH 0.100%): 100% | Pseudomonas aeruginosa Growth Rate ([1]; Water + QAH, QAH 1.000%): 100% | Staphylococcus aureus Growth Rate ([2]; CMC + QAH, QAH 0.010%): 0% | Staphylococcus aureus Growth Rate ([2]; CMC + QAH, QAH 0.100%): 0% | Staphylococcus aureus Growth Rate ([2]; CMC + QAH, QAH 1.000%): 100% | Staphylococcus aureus Growth Rate ([2]; Water + QAH, QAH 0.010%): 100% | Staphylococcus aureus Growth Rate ([2]; Water + QAH, QAH 0.100%): 25% | Staphylococcus aureus Growth Rate ([2]; Water + QAH, QAH 1.000%): 0% | Aspergillus niger Growth Rate ([3]; CMC + QAH, QAH 0.010%): 50% | Aspergillus niger Growth Rate ([3]; CMC + QAH, QAH 0.100%): 0% | Aspergillus niger Growth Rate ([3]; CMC + QAH, QAH 1.000%): 0% | Penicillium variable Growth Rate ([4]; CMC + QAH, QAH 0.010%): 0% | Penicillium variable Growth Rate ([4]; CMC + QAH, QAH 0.100%): 0% | Penicillium variable Growth Rate ([4]; CMC + QAH, QAH 1.000%): 0% | Penicillium variable Growth Rate ([4]; Water + QAH, QAH 0.010%): 0% | Penicillium variable Growth Rate ([4]; Water + QAH, QAH 0.100%): 0% | Penicillium variable Growth Rate ([4]; Water + QAH, QAH 1.000%): 0% | Trichophyton mentagrophytes Growth Rate ([5]; CMC + QAH, QAH 0.010%): 0% | Trichophyton mentagrophytes Growth Rate ([5]; CMC + QAH, QAH 0.100%): 0% | Trichophyton mentagrophytes Growth Rate ([5]; CMC + QAH, QAH 1.000%): 0% | Trichophyton mentagrophytes Growth Rate ([5]; Water + QAH, QAH 0.010%): 0% | Trichophyton mentagrophytes Growth Rate ([5]; Water + QAH, QAH 0.100%): 0% | Trichophyton mentagrophytes Growth Rate ([5]; Water + QAH, QAH 1.000%): 0% | effectiveness against the target organisms [6]: remarkable effectiveness

CCCCCCCCCCCCCCCC[N+](C)(C)C.[Br-] [CTAB, cetyltrimethylammonium bromide]
Pseudomonas aeruginosa Growth Rate ([1]; CTAB 0.0010% in water (no CMC)): 100% | Pseudomonas aeruginosa Growth Rate ([1]; CTAB 0.0100% in water (no CMC)): 100% | Pseudomonas aeruginosa Growth Rate ([1]; CTAB 0.0500% in water (no CMC)): 100% | efficacy against Pseudomonas ([1]; CTAB on its own in water, 0.05%): ineffective | Staphylococcus aureus Growth Rate ([2]; CTAB 0.0010% in water (no CMC)): 100% | Staphylococcus aureus Growth Rate ([2]; CTAB 0.0100% in water (no CMC)): 100% | Staphylococcus aureus Growth Rate ([2]; CTAB 0.0500% in water (no CMC)): 40% | Staphylococcus aureus Growth Rate ([2]; CTAB 0.1000% in water (no CMC)): 40% | Salmonella choleraesuis Growth Rate ([7]; CTAB 0.0100% in water (no CMC)): 100% | Salmonella choleraesuis Growth Rate ([7]; CTAB 0.1000% in water (no CMC)): 0% | Aspergillus niger Growth Rate ([3]; CTAB 0.0010% in water (no CMC)): 100% | Aspergillus niger Growth Rate ([3]; CTAB 0.0100% in water (no CMC)): 100% | Aspergillus niger Growth Rate ([3]; CTAB 0.0500% in water (no CMC)): 100% | Aspergillus niger Growth Rate ([3]; CTAB 0.1000% in water (no CMC)): 100% | Penicillium variable Growth Rate ([4]; CTAB 0.0010% in water (no CMC)): 100% | Penicillium variable Growth Rate ([4]; CTAB 0.0100% in water (no CMC)): 0% | Penicillium variable Growth Rate ([4]; CTAB 0.0500% in water (no CMC)): 0% | Penicillium variable Growth Rate ([4]; CTAB 0.1000% in water (no CMC)): 0% | Trichophyton mentagrophytes Growth Rate ([5]; CTAB 0.0010% in water (no CMC)): 0% | Trichophyton mentagrophytes Growth Rate ([5]; CTAB 0.0100% in water (no CMC)): 0% | Trichophyton mentagrophytes Growth Rate ([5]; CTAB 0.0500% in water (no CMC)): 0%
